From patent publication US7956196B2, “1,3-dihydro-benzimidazol-2-ylidene amines as inhibitors of respiratory syncytial virus replication” (Tibotec Pharmaceuticals Ltd., priority 2005, dated 2011)
Counter-ions that a name gives are not always drawn. Like-named read-outs stand apart in the source and are kept apart here.

What was measured:
[1] = test system: Respiratory Syncytial Virus; test: In vitro screening for activity against RSV, automated tetrazolium-based (MTT) colorimetric assay in HeLa cells; assay type: cell-based; settings: human respiratory syncytial virus, 168 h, read-out: pIC50 (converted)
Description: In vitro screening of compounds of formula (I) for activity against RSV. The percent protection against cytopathology caused by viruses (antiviral activity or EC50) achieved by tested compounds and their cytotoxicity (CC50) are both calculated from dose-response curves. The selectivity of the antiviral effect is represented by the selectivity index (SI), calculated by dividing the CC50 (cytotoxic dose for 50% of the cells) by the EC50 (antiviral activity for 50% of the cells). The tables in the above experimental part list the category to which each of the prepared compounds belong: Compounds belonging to activity category “A” have a pEC50 (-log of EC50 when expressed in molar units) equal to or more than 7. Compounds belonging to activity category “B” have a pEC50 value between 6 and 7.
Automated tetrazolium-based colorimetric assays were used for determination of EC50 and CC50 of test compounds. Flat-bottom, 96-well plastic microtiter trays were filled with 180 μl of Eagle's Basal Medium, supplemented with 5% FCS (0% for FLU) and 20 mM Hepes buffer. Subsequently, stock solutions (7.8×final test concentration) of compounds were added in 45 μl volumes to a series of triplicate wells so as to allow simultaneous evaluation of their effects on virus- and mock-infected cells. Five five-fold dilutions were made directly in the microtiter trays using a robot system. Untreated virus controls, and HeLa cell controls were included in each test. Approximately 100 TCID50 of Respiratory Syncytial Virus was added to two of the three rows in a volume of 50 μl. The same volume of medium was added to the third row to measure the cytotoxicity of the compounds at the same concentrations as those used to measure the antiviral activity. After two hours of incubation, a suspension (4×10^5 cells/ml) of HeLa cells was added to all wells in a volume of 50 μl. The cultures were incubated at 37° C. in a 5% CO2 atmosphere. Seven days after infection the cytotoxicity and the antiviral activity was examined spectrophotometrically. To each well of the microtiter tray, 25 μl of a solution of MTT (3-(4,5-dimethylthiazol-2-yl)-2,5-diphenyltetrazolium bromide) was added. The trays were further incubated at 37° C. for 2 hours, after which the medium was removed from each cup. Solubilization of the formazan crystals was achieved by adding 100 μl 2-propanol. Complete dissolution of the formazan crystals were obtained after the trays have been placed on a plate shaker for 10 min. Finally, the absorbances were read in an eight-channel computer-controlled photometer (Multiskan MCC, Flow Laboratories) at two wavelengths (540 and 690 nm). The absorbance measured at 690 nm was automatically subtracted from the absorbance at 540 nm, so as to eliminate the effects of non-specific absorption.
The percent protection against cytopathology caused by viruses (antiviral activity or EC50) achieved by tested compounds and their cytotoxicity (CC50) were both calculated from dose-response curves. The selectivity of the antiviral effect is represented by the selectivity index (SI), calculated by dividing the CC50 (cytotoxic dose for 50% of the cells) by the EC50 (antiviral activity for 50% of the cells).

[2] = protection against RSV cytopathology in HeLa cells, MTT readout seven days after infection

Structure (SMILES)	melting point [°C]	IC50 [1, 2] [µM]	IC50 ([1]; HeLa) [µM]
COC(=O)c1ccc(Cn2c(=NCCc3ccc(Br)cc3)n(Cc3cccc4cccnc34)c3ccccc32)cc1 (as salt: HCl) [Compound 35]	128		
N#Cc1ccc(Cn2c(=NCCc3ccc(OCCO)cc3)n(Cc3cccc4cccnc34)c3ccccc32)cc1 [Compound 1]		0.00631	
N#Cc1ccc(CN=c2n(Cc3ccc(C#N)cc3)c3ccccc3n2Cc2cccc3cccnc23)cc1 [Compound 2]		0.01	
N#Cc1ccc(Cn2c(=NCCc3ccc(O)cc3)n(Cc3cccc4cccnc34)c3ccccc32)cc1 [Compound 4]	160	0.0126	
COC(=O)c1ccc(CN=c2n(Cc3ccc(C#N)cc3)c3ccccc3n2Cc2cccc3cccnc23)cc1 [Compound 5]		0.0158	
N#Cc1ccc(Cn2c(=NCCc3ccc(Br)cc3)n(Cc3cccc4cccnc34)c3ccccc32)cc1 [Compound 6]		0.0316	
N#Cc1ccc(Cn2c(=NCCc3cccc(F)c3)n(Cc3cccc4cccnc34)c3ccccc32)cc1 [Compound 8]	102	0.0501	
COc1ccc(CCCN=c2n(Cc3ccc(C#N)cc3)c3ccccc3n2Cc2cccc3cccnc23)cc1 [Compound 9]	80	0.0501	
N#Cc1ccc(Cn2c(=NCc3cccc(C#N)c3)n(Cc3cccc4cccnc34)c3ccccc32)cc1 [Compound 10]		0.0631	
N#Cc1ccc(Cn2c(=NCCc3ccc(F)cc3)n(Cc3cccc4cccnc34)c3ccccc32)cc1 [Compound 11]		0.0794	
N#Cc1ccc(Cn2c(=NCCCN3CCOCC3)n(Cc3cccc4cccnc34)c3ccccc32)cc1 [Compound 13]	80	0.126	
COc1ccccc1CCN=c1n(Cc2ccc(C#N)cc2)c2ccccc2n1Cc1cccc2cccnc12 [Compound 14]		0.158	
N#Cc1ccc(Cn2c(=NCCCN3CCCC3=O)n(Cc3cccc4cccnc34)c3ccccc32)cc1 [Compound 15]		0.2	
Cc1cc(C)cc(CN=c2n(Cc3ccc(C#N)cc3)c3ccccc3n2Cc2cccc3cccnc23)c1 [Compound 16]	142		0.251
N#Cc1ccc(Cn2c(=NCCC(c3ccccc3)c3ccccc3)n(Cc3cccc4cccnc34)c3ccccc32)cc1 [Compound 18]	184	0.316	
N#Cc1ccc(Cn2c(=NC(=O)c3cccc(Cl)c3)n(Cc3cccc4cccnc34)c3ccccc32)cc1 [Compound 19]	160	0.316	
Cc1cccc(C(=O)N=c2n(Cc3ccc(C#N)cc3)c3ccccc3n2Cc2cccc3cccnc23)c1 [Compound 20]	158	0.398	
N#Cc1ccc(Cn2c(=NC(=O)c3ccc(Cl)cc3)n(Cc3cccc4cccnc34)c3ccccc32)cc1 [Compound 21]	154	0.398	
N#Cc1ccc(Cn2c(=NC(=O)c3cccc([N+](=O)[O-])c3)n(Cc3cccc4cccnc34)c3ccccc32)cc1 [Compound 22]	222	0.631	
N#Cc1ccc(Cn2c(=NC(=O)c3ccc(Cl)cc3Cl)n(Cc3cccc4cccnc34)c3ccccc32)cc1 [Compound 23]	114		0.631
N#Cc1ccc(Cn2c(=NC(=O)c3cc(C(F)(F)F)cc(C(F)(F)F)c3)n(Cc3cccc4cccnc34)c3ccccc32)cc1 [Compound 24]	190	0.794	
N#Cc1ccc(Cn2c(=NCCc3ccccc3)n(Cc3cccc4cccnc34)c3ccccc32)cc1 [Compound 25]		2	
N#Cc1ccc(Cn2c(=NC(=O)c3ccc(Br)cc3)n(Cc3cccc4cccnc34)c3ccccc32)cc1 [Compound 26]	125	10	
COc1ccc(C(=O)N=c2n(Cc3ccc(C#N)cc3)c3ccccc3n2Cc2cccc3cccnc23)cc1 [Compound 27]	150		20
N#Cc1ccc(Cn2c(=NC(=O)c3ccc([N+](=O)[O-])cc3)n(Cc3cccc4cccnc34)c3ccccc32)cc1 [Compound 28]	196	31.6	

Structure (SMILES)	melting point [°C]	IC50 [1, 2] [µM]	IC50 ([1]; HeLa) [µM]
N#Cc1ccc(Cn2c(=NC(=O)c3ccc(-c4ccccc4)cc3)n(Cc3cccc4cccnc34)c3ccccc32)cc1 [Compound 29]	100	39.8	
CC(C)Oc1ccc(C(=O)N=c2n(Cc3ccc(C#N)cc3)c3ccccc3n2Cc2cccc3cccnc23)cc1 [Compound 30]	118	50.1	
N#Cc1ccc(Cn2c(=NC(=O)c3ccc(C#N)cc3)n(Cc3cccc4cccnc34)c3ccccc32)cc1 [Compound 31]	182	> 100	
COc1cc(C(=O)N=c2n(Cc3ccc(C#N)cc3)c3ccccc3n2Cc2cccc3cccnc23)cc(OC)c1OC [Compound 32]	108		> 100
N#Cc1ccc(Cn2c(=NC(=O)c3ccc(Oc4ccccc4)cc3)n(Cc3cccc4cccnc34)c3ccccc32)cc1 [Compound 33]	66	100	
COC(=O)c1ccc(Cn2c(=NCCc3ccc(Br)cc3)n(Cc3cccc4cccnc34)c3ccccc32)cc1 [Compound 35]		0.00794	
COC(=O)c1ccc(Cn2c(=NCCc3cccc(F)c3)n(Cc3cccc4cccnc34)c3ccccc32)cc1 [Compound 36]	89	0.0794	
COC(=O)c1ccc(Cn2c(=NCCCN3CCOCC3)n(Cc3cccc4cccnc34)c3ccccc32)cc1 [Compound 37]		0.126	
COC(=O)c1ccc(Cn2c(=NCCC(c3ccccc3)c3ccccc3)n(Cc3cccc4cccnc34)c3ccccc32)cc1 [Compound 38]	146	0.158	
COC(=O)c1ccc(Cn2c(=NC(=O)c3cc(C(F)(F)F)cc(C(F)(F)F)c3)n(Cc3cccc4cccnc34)c3ccccc32)cc1 [Compound 39]	204	1.58	
COC(=O)c1ccc(Cn2c(=NC(=O)c3ccc(Br)cc3)n(Cc3cccc4cccnc34)c3ccccc32)cc1 [Compound 40]	131	> 100	
COc1ccc(CCN=c2n(Cc3ccc(OC)cc3)c3ccccc3n2Cc2cccc3cccnc23)cc1 [Compound 41]		0.0631	
COc1ccc(CCN=c2n(Cc3ccc(C)cc3)c3ccccc3n2Cc2cccc3cccnc23)cc1 [Compound 42]			0.0794
COC(=O)c1cccc(Cn2c(=NCCc3ccc(Br)cc3)n(Cc3cccc4cccnc34)c3ccccc32)c1 [Compound 43]	80	0.0794	
COc1ccc(Cn2c(=NCCc3ccc(Br)cc3)n(Cc3cccc4cccnc34)c3ccccc32)cc1 [Compound 44]	87	0.0794	
COc1ccc(CCN=c2n(Cc3ccc(Br)cc3)c3ccccc3n2Cc2cccc3cccnc23)cc1 [Compound 45]		0.1	
COc1ccc(CCN=c2n(Cc3ccc(Cl)cc3)c3ccccc3n2Cc2cccc3cccnc23)cc1 [Compound 46]	250	0.1	
COc1ccc(CCN=c2n(Cc3ccc(F)cc3)c3ccccc3n2Cc2cccc3cccnc23)cc1 [Compound 47]		0.158	
CCOc1ccc(CCn2c(=NCCc3ccc(OC)cc3)n(Cc3cccc4cccnc34)c3ccccc32)cc1 [Compound 48]		0.2	
COc1ccc(CCN=c2n(Cc3cccc(Cl)c3)c3ccccc3n2Cc2cccc3cccnc23)cc1 [Compound 49]		0.251	
COc1ccc(C(=O)Cn2c(=NCCc3ccc(Br)cc3)n(Cc3cccc4cccnc34)c3ccccc32)cc1 [Compound 50]	152	0.316	
CCOc1ccc(CCn2c(=NCCc3ccc(Br)cc3)n(Cc3cccc4cccnc34)c3ccccc32)cc1 [Compound 51]		0.501	
O=C(Cn1c(=NCCc2ccc(Br)cc2)n(Cc2cccc3cccnc23)c2ccccc21)c1ccc(Br)cc1 [Compound 52]	120		0.631
N#Cc1ccc(C(=O)Cn2c(=NCCc3ccc(Br)cc3)n(Cc3cccc4cccnc34)c3ccccc32)cc1 [Compound 53]		2.51	
N#Cc1ccc(Cn2c(=NCCCN3CCOCC3)n(Cc3ccc4ccccc4n3)c3ccccc32)cc1 [Compound 56]		0.2	
